Experimental data from patent US8168806B2, “Boron chelate complexes” (Chemetall GmbH, priority 2001, dated 2012).
Like-named read-outs stand apart in the source and are kept apart here.

Assays:
[1] = 5% solution in water, stirring for 2 hours, room temperature
[2] = room temperature
[3] = room temperature; for Cond. (conductivity): at the concentration (mmole/g) printed in the cell to the left
[4] = prior art statement; cited from earlier work
[5] = Qualitative solubility of the product of Example 3 in organic solvents; type: physicochemical; details: in propylene carbonate, γ-butyrolactone, 1,2-dimethyoxyethane, acetone and dimethylformamide
[6] = in propylene carbonate; Xu and Angell 2001; cited from earlier work
[7] = thermogravimetry
[8] = 0.5 molar solution in γ-butyrolactone, nickel electrodes, FIG. 1
[9] = in 1,2-DME (1,2-dimethoxyethane)

SMILES	Degree of hydrolysis [1] [%]	Solubility [2, 9] [mol/kg]	Solubility ([2]; in PC (propylene carbonate)) [mol/kg]	Solubility ([2]; in THF (tetrahydrofuran)) [mol/kg]	Solubility ([2]; in acetone) [mol/kg]	Solubility ([2]; in γ-BL (γ-butyrolactone)) [mol/kg]	Cond. (conductivity) ([3]; in γ-BL) [mS/cm]	Electrochemical stability / electrochemical window up to [4]	Cond. (conductivity) ([3]; in THF) [mS/cm]	Solubility in words [5]	Solubility [6] [M]	TGA: decomposition starts at [7]	Electrochemical window (upper limit of stability, Li/Li+=0) [8]	Cond. (conductivity) ([3]; in 1,2-DME) [mS/cm]	Concn. column: solubility in words ([3]; in 1,2-DME)	Concn. column: solubility in words ([3]; in THF)
O=C1O[B-]2(OC1=O)OC(=O)C(=O)O2.[Li+] [LOB, Lithium-bis(oxalato)borate]	>50	1.30	0.88	1.90	1.82	1.55	6.96	about 4.5 V								
O=C1CC(=O)O[B-]2(O1)OC(=O)C(=O)O2.[Li+] [LOMB, Lithium-(malonato,oxalato)borate]	15	0.20	0.17	0.17	0.43	0.62	3.59		0.41							
O=C1O[B-]2(OC1=O)OC(=O)c1ccccc1O2.[H+] [HSOB, hydrogen-(salicylato, oxalato)borate]										extremely soluble						
O=C1CC(=O)O[B-]2(O1)OC(=O)CC(=O)O2.[Li+] [LMB, Lithium-bis(malonato)borate]	5	0.003	0.02	0.09	0.03	0.13	1.65	up to 5 V	0.01		0.08					
CC1O[B-]2(OC(=O)C(=O)O2)OC1=O.[Li+] (stereo not shown) [LLOB, Lithium-(lactato,oxalato)borate]		0.93	0.17	1.59	1.38	0.96	2.61		2.91			ca. 270 °C	ca. 5 V	6.52		
CC1O[B-]2(OC1=O)OC(=O)C(C)O2.[Li+] (stereo not shown) [LLB, Lithium-bis(lactato)borate]		<0.01	<0.01	<0.01	<0.01	0.02	0.01		0					0	insoluble	insoluble
O=C1O[B-]2(OC1=O)OC(=O)c1ccccc1O2.[Li+] [LOSB, Lithium-(oxalato,salicylato)borate]		0.43	1.50	1.21	0.51	0.98			3.17			ca. 210 °C		4.17		
